Structures are written as SMILES. Calls of active or inactive are those of the source. The calls are words filed in the database; no cut-off is given here. Bounds are passed on as bounds.

The inhibition is the percentage by which the read-out fell short of the control. The term IC50 denotes the point on the concentration scale where inhibition reaches its midpoint.

Experiment [1] deals with T1, Dual specificity calcium/calmodulin-dependent 3',5'-cyclic nucleotide phosphodiesterase 1C (Homo sapiens, UniProt Q14123). Nature of the experiment: Inhibition of PDE1C (147 to 531 residues) (unknown origin) expressed in Escherichia coli BL21 at 1000 nM [3H]-cGMP as substrate measured for 15 mins by liquid scintillation counter method relative to control.
T1 sequence (Q14123 whole entry, the tested form may be a part): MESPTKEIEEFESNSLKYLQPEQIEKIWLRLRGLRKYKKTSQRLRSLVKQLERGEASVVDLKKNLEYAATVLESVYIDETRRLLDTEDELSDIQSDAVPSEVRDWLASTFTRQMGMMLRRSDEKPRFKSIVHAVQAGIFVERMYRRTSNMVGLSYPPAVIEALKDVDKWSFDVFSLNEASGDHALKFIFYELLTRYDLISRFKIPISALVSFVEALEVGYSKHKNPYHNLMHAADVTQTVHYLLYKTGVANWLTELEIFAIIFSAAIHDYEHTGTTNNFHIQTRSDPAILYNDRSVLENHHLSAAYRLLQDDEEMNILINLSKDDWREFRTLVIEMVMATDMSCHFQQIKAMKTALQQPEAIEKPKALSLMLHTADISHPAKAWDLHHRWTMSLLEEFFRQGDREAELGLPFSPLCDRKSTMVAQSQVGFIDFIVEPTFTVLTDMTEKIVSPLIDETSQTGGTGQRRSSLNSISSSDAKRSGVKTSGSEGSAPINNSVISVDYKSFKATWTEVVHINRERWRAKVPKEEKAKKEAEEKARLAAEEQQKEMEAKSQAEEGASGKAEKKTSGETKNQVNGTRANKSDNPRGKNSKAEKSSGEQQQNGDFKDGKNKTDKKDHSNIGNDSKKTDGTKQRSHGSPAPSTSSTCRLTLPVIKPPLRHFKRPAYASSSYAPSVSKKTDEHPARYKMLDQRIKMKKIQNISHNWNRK
The target in experiment [2] is T1, Dual specificity calcium/calmodulin-dependent 3',5'-cyclic nucleotide phosphodiesterase 1C. Description: Inhibition of PDE1C (147 to 531 residues) (unknown origin) expressed in Escherichia coli BL21 using [3H]-cGMP as substrate measured for 15 mins by liquid scintillation counter method.
Experiment [3] is filed under the species Homo sapiens. Description: Selectivity ratio of IC50 for PDE4D (unknown origin) expressed in Escherichia coli BL21 to IC50 for PDE1C (147 to 531 residues) (unknown origin) expressed in Escherichia coli BL21.
Experiment [4] has as its system Rattus norvegicus. Description: Antifibrotic activity in bleomycin-induced Sprague-Dawley rat lung fibrosis model assessed as decrease in collagen I level at 150 mg/kg, po administered daily for 28 days by Western blot analysis. The class given is functional, organism-based. To be noted: time 28.0 day.
The subject of experiment [5] is Rattus norvegicus. Description: Antifibrotic activity in bleomycin-induced Sprague-Dawley rat lung fibrosis model assessed as decrease in alpha-smooth muscle actin level at 150 mg/kg, po administered daily for 28 days by Western blot analysis. In kind it is functional, organism-based. To be noted: time 28.0 day.
Experiment [6] has as its system Rattus norvegicus. Description: Antifibrotic activity in bleomycin-induced Sprague-Dawley rat lung fibrosis model assessed as decrease in fibronectin level at 150 mg/kg, po administered daily for 28 days by Western blot analysis. In kind it is functional, organism-based. To be noted: time 28.0 day.

For `COC(=O)C1=C(C)NC(C)=C(C(=O)OC)C1c1ccc(F)c(F)c1`, the inhibition in experiment [1] worked out at 42%.

Regarding `CC1=C(C(=O)OCc2cncs2)C(c2ccc3c(cnn3C)c2)C(C(=O)OCc2cncs2)=C(C)N1`, the IC50 in experiment [2] came to 189 nM. Consider `COCCOC(=O)C1=C(C)NC(C)=C(C(=O)OC(C)C)C1c1cccc([N+](=O)[O-])c1` (configuration not stated) [NIMODIPINE], for which the IC50 in experiment [2] is 1240 nM. In experiment [3], the Ratio IC50 came out at 5.8. In the case of `CCOC(=O)C1=C(C)NC(C)=C(C(=O)OC)C1c1cccc([N+](=O)[O-])c1` (configuration not stated) [NITRENDIPINE], the IC50 in experiment [2] came out at 1850 nM.

As for `COC(=O)C1=C(C)NC(C)=C(C(=O)OC)C1c1cccc(C#N)c1`, the inhibition in experiment [1] stood at 25%. On to `COC(=O)C1=C(C)NC(C)=C(C(=O)OC)C1c1ccccc1[N+](=O)[O-]` [NIFEDIPINE], for which, in experiment [2], the IC50 is > 10000 nM. Consider `COC(=O)C1=C(C)NC(C)=C(C(=O)OC)C1c1cccc(OC)c1`, for which the inhibition in experiment [1] worked out at 7%. Turning to `Cc1ccc(=O)n(-c2ccccc2)c1`, the result in experiment [4], in experiment [5] and in experiment [6] was Active. Take `COC(=O)C1=C(C)NC(C)=C(C(=O)OC)C1c1ccc(OC)c(OC)c1`: in experiment [1], the inhibition worked out at 43%.

The values above are taken from ChEMBL document CHEMBL5154941, “Structural Modifications of Nimodipine Lead to Novel PDE1 Inhibitors with Anti-pulmonary Fibrosis Effects” (J Med Chem, 2022).
